{"source": "ChEMBL document CHEMBL2150993", "about": "“Substituted thiazoles VII. Synthesis and antitumor activity of certain 2-(substituted amino)-4-phenyl-1,3-thiazole analogs” (2012)", "assay_type_in_all_cases": "functional", "settings_in_all_cases": "at 10 µM", "key": {"[1]": {"test_system": "CCRF-CEM", "experiment": "Growth inhibition of human CCRF-CEM cells after 48 hrs by cell counting analysis"}, "[2]": {"test_system": "HL-60", "experiment": "Growth inhibition of human HL60 cells after 48 hrs by cell counting analysis"}, "[3]": {"test_system": "K562", "experiment": "Growth inhibition of human K562 cells after 48 hrs by cell counting analysis"}, "[4]": {"test_system": "RPMI-8226", "experiment": "Growth inhibition of human RPMI8226 cells after 48 hrs by cell counting analysis"}, "[5]": {"test_system": "SR", "experiment": "Growth inhibition of human SR cells after 48 hrs by cell counting analysis"}, "[6]": {"test_system": "A549", "experiment": "Growth inhibition of human A549 cells after 48 hrs by cell counting analysis"}, "[7]": {"test_system": "EKVX", "experiment": "Growth inhibition of human EKVX cells after 48 hrs by cell counting analysis"}, "[8]": {"test_system": "HOP-62", "experiment": "Growth inhibition of human HOP62 cells after 48 hrs by cell counting analysis"}, "[9]": {"test_system": "HOP-92", "experiment": "Growth inhibition of human HOP92 cells after 48 hrs by cell counting analysis"}, "[10]": {"test_system": "NCI-H226", "experiment": "Growth inhibition of human NCI-H226 cells after 48 hrs by cell counting analysis"}, "[11]": {"test_system": "NCI-H23", "experiment": "Growth inhibition of human NCI-H23 cells after 48 hrs by cell counting analysis"}, "[12]": {"experiment": "Growth inhibition of human NCI-322M cells after 48 hrs by cell counting analysis"}, "[13]": {"test_system": "NCI-H522", "experiment": "Growth inhibition of human NCI-H522 cells after 48 hrs by cell counting analysis"}, "[14]": {"test_system": "HCC 2998", "experiment": "Growth inhibition of human HCC2998 cells after 48 hrs by cell counting analysis"}, "[15]": {"test_system": "HCT-15", "experiment": "Growth inhibition of human HCT15 cells after 48 hrs by cell counting analysis"}, "[16]": {"test_system": "HT-29", "experiment": "Growth inhibition of human HT-29 cells after 48 hrs by cell counting analysis"}, "[17]": {"test_system": "KM12", "experiment": "Growth inhibition of human KM12 cells after 48 hrs by cell counting analysis"}, "[18]": {"test_system": "SW-620", "experiment": "Growth inhibition of human SW620 cells after 48 hrs by cell counting analysis"}, "[19]": {"test_system": "SF-268", "experiment": "Growth inhibition of human SF268 cells after 48 hrs by cell counting analysis"}, "[20]": {"test_system": "SF-295", "experiment": "Growth inhibition of human SF295 cells after 48 hrs by cell counting analysis"}, "[21]": {"test_system": "SF-539", "experiment": "Growth inhibition of human SF539 cells after 48 hrs by cell counting analysis"}, "[22]": {"test_system": "SNB-19", "experiment": "Growth inhibition of human SNB19 cells after 48 hrs by cell counting analysis"}, "[23]": {"test_system": "SNB-75", "experiment": "Growth inhibition of human SNB75 cells after 48 hrs by cell counting analysis"}, "[24]": {"test_system": "U-251", "experiment": "Growth inhibition of human U251 cells after 48 hrs by cell counting analysis"}, "[25]": {"test_system": "LOX IMVI", "experiment": "Growth inhibition of human LOXIMVI cells after 48 hrs by cell counting analysis"}, "[26]": {"test_system": "Malme-3M", "experiment": "Growth inhibition of human MALME-3M cells after 48 hrs by cell counting analysis"}, "[27]": {"test_system": "M14", "experiment": "Growth inhibition of human M14 cells after 48 hrs by cell counting analysis"}, "[28]": {"test_system": "MDA-MB-435", "experiment": "Growth inhibition of human MDA-MB-435 cells after 48 hrs by cell counting analysis"}, "[29]": {"test_system": "SK-MEL-2", "experiment": "Growth inhibition of human SK-MEL-2 cells after 48 hrs by cell counting analysis"}, "[30]": {"test_system": "SK-MEL-28", "experiment": "Growth inhibition of human SK-MEL-28 cells after 48 hrs by cell counting analysis"}, "[31]": {"test_system": "SK-MEL-5", "experiment": "Growth inhibition of human SK-MEL-5 cells after 48 hrs by cell counting analysis"}, "[32]": {"test_system": "UACC-257", "experiment": "Growth inhibition of human UACC257 cells after 48 hrs by cell counting analysis"}, "[33]": {"test_system": "UACC-62", "experiment": "Growth inhibition of human UACC62 cells after 48 hrs by cell counting analysis"}, "[34]": {"test_system": "IGROV-1", "experiment": "Growth inhibition of human IGROV1 cells after 48 hrs by cell counting analysis"}, "[35]": {"test_system": "OVCAR-3", "experiment": "Growth inhibition of human OVCAR3 cells after 48 hrs by cell counting analysis"}, "[36]": {"test_system": "OVCAR-4", "experiment": "Growth inhibition of human OVCAR4 cells after 48 hrs by cell counting analysis"}, "[37]": {"test_system": "OVCAR-5", "experiment": "Growth inhibition of human OVCAR5 cells after 48 hrs by cell counting analysis"}, "[38]": {"test_system": "OVCAR-8", "experiment": "Growth inhibition of human OVCAR8 cells after 48 hrs by cell counting analysis"}, "[39]": {"experiment": "Growth inhibition of human NCI-ADR-RES cells after 48 hrs by cell counting analysis"}, "[40]": {"test_system": "SK-OV-3", "experiment": "Growth inhibition of human SKOV3 cells after 48 hrs by cell counting analysis"}, "[41]": {"test_system": "ACHN", "experiment": "Growth inhibition of human ACHN cells after 48 hrs by cell counting analysis"}, "[42]": {"test_system": "CAKI-1", "experiment": "Growth inhibition of human Caki1 cells after 48 hrs by cell counting analysis"}, "[43]": {"test_system": "RXF 393", "experiment": "Growth inhibition of human RXF393 cells after 48 hrs by cell counting analysis"}, "[44]": {"test_system": "SN12C", "experiment": "Growth inhibition of human SN12C cells after 48 hrs by cell counting analysis"}, "[45]": {"test_system": "TK-10", "experiment": "Growth inhibition of human TK10 cells after 48 hrs by cell counting analysis"}, "[46]": {"test_system": "UO-31", "experiment": "Growth inhibition of human UO31 cells after 48 hrs by cell counting analysis"}, "[47]": {"test_system": "PC-3", "experiment": "Growth inhibition of human PC3 cells after 48 hrs by cell counting analysis"}, "[48]": {"test_system": "MCF7", "experiment": "Growth inhibition of human MCF7 cells after 48 hrs by cell counting analysis"}, "[49]": {"test_system": "MDA-MB-231", "experiment": "Growth inhibition of human MDA-MB-231 cells after 48 hrs by cell counting analysis"}, "[50]": {"test_system": "BT-549", "experiment": "Growth inhibition of human BT549 cells after 48 hrs by cell counting analysis"}, "[51]": {"test_system": "T47D", "experiment": "Growth inhibition of human T47D cells after 48 hrs by cell counting analysis"}, "[52]": {"test_system": "MDA-MB-468", "experiment": "Growth inhibition of human MDA-MB-468 cells after 48 hrs by cell counting analysis"}, "[53]": {"test_system": "MOLT-4", "experiment": "Growth inhibition of human MOLT4 cells after 48 hrs by cell counting analysis"}, "[54]": {"test_system": "HCT-116", "experiment": "Growth inhibition of human HCT116 cells after 48 hrs by cell counting analysis"}}, "data": [{"compound": "Cc1ccc(-c2csc(NC(=O)CN3CCN(c4ccccc4)CC3)n2)cc1", "values": [{"measurement": "growth inhibition (GI)", "setting": "[1]", "result": 13.4, "unit": "%"}, {"measurement": "growth inhibition (GI)", "setting": "[2]", "result": "<10", "unit": "%"}, {"measurement": "growth inhibition (GI)", "setting": "[3]", "result": "<10", "unit": "%"}, {"measurement": "growth inhibition (GI)", "setting": "[4]", "result": "<10", "unit": "%"}, {"measurement": "growth inhibition (GI)", "setting": "[5]", "result": "<10", "unit": "%"}, {"measurement": "growth inhibition (GI)", "setting": "[6]", "result": 31.4, "unit": "%"}, {"measurement": "growth inhibition (GI)", "setting": "[7]", "result": 32.5, "unit": "%"}, {"measurement": "growth inhibition (GI)", "setting": "[8]", "result": "<10", "unit": "%"}, {"measurement": "growth inhibition (GI)", "setting": "[9]", "result": "<10", "unit": "%"}, {"measurement": "growth inhibition (GI)", "setting": "[10]", "result": "<10", "unit": "%"}, {"measurement": "growth inhibition (GI)", "setting": "[11]", "result": 18.9, "unit": "%"}, {"measurement": "growth inhibition (GI)", "setting": "[12]", "result": 21.4, "unit": "%"}, {"measurement": "growth inhibition (GI)", "setting": "[13]", "result": "<10", "unit": "%"}, {"measurement": "growth inhibition (GI)", "setting": "[14]", "result": 15.2, "unit": "%"}, {"measurement": "growth inhibition (GI)", "setting": "[15]", "result": 10.6, "unit": "%"}, {"measurement": "growth inhibition (GI)", "setting": "[16]", "result": "<10", "unit": "%"}, {"measurement": "growth inhibition (GI)", "setting": "[17]", "result": "<10", "unit": "%"}, {"measurement": "growth inhibition (GI)", "setting": "[18]", "result": "<10", "unit": "%"}, {"measurement": "growth inhibition (GI)", "setting": "[19]", "result": 13.9, "unit": "%"}, {"measurement": "growth inhibition (GI)", "setting": "[20]", "result": 27.3, "unit": "%"}, {"measurement": "growth inhibition (GI)", "setting": "[21]", "result": "<10", "unit": "%"}, {"measurement": "growth inhibition (GI)", "setting": "[22]", "result": "<10", "unit": "%"}, {"measurement": "growth inhibition (GI)", "setting": "[23]", "result": 12.1, "unit": "%"}, {"measurement": "growth inhibition (GI)", "setting": "[24]", "result": "<10", "unit": "%"}, {"measurement": "growth inhibition (GI)", "setting": "[25]", "result": 17.2, "unit": "%"}, {"measurement": "growth inhibition (GI)", "setting": "[26]", "result": "<10", "unit": "%"}, {"measurement": "growth inhibition (GI)", "setting": "[27]", "result": "<10", "unit": "%"}, {"measurement": "growth inhibition (GI)", "setting": "[28]", "result": 17.6, "unit": "%"}, {"measurement": "growth inhibition (GI)", "setting": "[29]", "result": "<10", "unit": "%"}, {"measurement": "growth inhibition (GI)", "setting": "[30]", "result": "<10", "unit": "%"}, {"measurement": "growth inhibition (GI)", "setting": "[31]", "result": 27.6, "unit": "%"}, {"measurement": "growth inhibition (GI)", "setting": "[32]", "result": "<10", "unit": "%"}, {"measurement": "growth inhibition (GI)", "setting": "[33]", "result": 23.6, "unit": "%"}, {"measurement": "growth inhibition (GI)", "setting": "[34]", "result": 33.8, "unit": "%"}, {"measurement": "growth inhibition (GI)", "setting": "[35]", "result": "<10", "unit": "%"}, {"measurement": "growth inhibition (GI)", "setting": "[36]", "result": 28.1, "unit": "%"}, {"measurement": "growth inhibition (GI)", "setting": "[37]", "result": "<10", "unit": "%"}, {"measurement": "growth inhibition (GI)", "setting": "[38]", "result": "<10", "unit": "%"}, {"measurement": "growth inhibition (GI)", "setting": "[39]", "result": 21, "unit": "%"}, {"measurement": "growth inhibition (GI)", "setting": "[40]", "result": "<10", "unit": "%"}, {"measurement": "growth inhibition (GI)", "setting": "[41]", "result": "<10", "unit": "%"}, {"measurement": "growth inhibition (GI)", "setting": "[42]", "result": 24.6, "unit": "%"}, {"measurement": "growth inhibition (GI)", "setting": "[43]", "result": "<10", "unit": "%"}, {"measurement": "growth inhibition (GI)", "setting": "[44]", "result": 17, "unit": "%"}, {"measurement": "growth inhibition (GI)", "setting": "[45]", "result": "<10", "unit": "%"}, {"measurement": "growth inhibition (GI)", "setting": "[46]", "result": 48.2, "unit": "%"}, {"measurement": "growth inhibition (GI)", "setting": "[47]", "result": 31.1, "unit": "%"}, {"measurement": "growth inhibition (GI)", "setting": "[48]", "result": 20.9, "unit": "%"}, {"measurement": "growth inhibition (GI)", "setting": "[49]", "result": "<10", "unit": "%"}, {"measurement": "growth inhibition (GI)", "setting": "[50]", "result": "<10", "unit": "%"}, {"measurement": "growth inhibition (GI)", "setting": "[51]", "result": 20.8, "unit": "%"}, {"measurement": "growth inhibition (GI)", "setting": "[52]", "result": 23.1, "unit": "%"}, {"measurement": "growth inhibition (GI)", "setting": "[53]", "result": 23.7, "unit": "%"}, {"measurement": "growth inhibition (GI)", "setting": "[54]", "result": "<10", "unit": "%"}]}]}
